Source: patent publication US5593678A, “Protection of teleost fish” (University of Georgia Research Foundation, priority 1994, dated 1997)
Read-outs that look alike come from different tables or passages of the source.

Tests used:
diabetic animals = conditions: cited from earlier work
Edwardsiella ictaluri [1] = conditions: approximately 10 μM to approximately 25 μM, 18-24 hours; FIG. 10; listed as sodium orthovanadate
Na^+ /K^+ ATPase = conditions: cited from earlier work
protein phosphatase = conditions: cited from earlier work
calcineurin = conditions: cited from earlier work
[2] = tested on: NCC (lysis of IM-9 target cells); conditions: for effect of removal of inhibitor on NCC activation (words): 90 minutes treatment, washed, E:T 40:1; for enhancement of destruction of IM-9 target cells (fold): over control, lower E:T ratios
Protocol: FIG. 4. Individual and combined effects of phosphatase inhibitors on NCC cytotoxicity, NCC (7×10^5 cells) were incubated with either media (.diamond.), vanadate (Δ) (5 mM). NaF (.smallcircle.) (20 mM), or both vanadate and NaF (.quadrature.) for the indicated time periods before addition to labeled IM-9 target cells.
FIG. 5. Effects of removal of Na3 VO4 on NCC activation. NCC were harvested, incubated for three hours, washed, counted and added to duplicate tubes containing either media alone or media containing 2.5, 5 and 10 mM vanadate. Following a 90 minutes incubation time, the cells were either washed and resuspended in media (closed circles) or added directly (open circles) to wells containing ^51 chromium labeled IM-9 target cells (E:T ratio 40:1).
FIG. 6. Effects of removal of NaF on NCC activation. NCC were harvested, incubated for three hours in media, washed, counted and added to duplicate tubes containing media alone or in the presence of 5, 10 and 20 mM NaF. Following a 90 minutes treatment time, NCC were either washed (closed circles) or added directly (open circles) to wells containing labeled IM-9 target cells (E:t ratio 40:1).
FIG. 7. Effects of Na3 VO4 on NCC with different levels of cytotoxicity. NCC were harvested from anterior kidneys of fish from three different sources. The cells were incubated in media for three hours, washed, counted and added to test tubes containing either media alone or media with 2.5, 5 and 10 mM vanadate. Following a two hours incubation time, the effectors were added to wells containing labeled IM-9 cells at a 40:1 E:T ratio.
FIG. 8. Effects of NaF on NCC with different levels of cytotoxicity. NCC were harvested from anterior kidneys of fish from three different sources. The cells were incubated in media for three hours, washed, counted and added to media or media with 5, 10 and 20 mM NaF. Following a two-hour incubation, NCC were added to wells containing ^51 chromium labeled IM-9 target cells for a final E:T ratio of 40:1.
(§1) A ^51 Cr release assay was used to determine cytotoxicity. Target cells at 1-2×10^6 cells/ml were labeled with 100 μCi of sodium chromate (Amersham, Arlington Heights, Ill.). NCC effector cells were treated as previously described [Evans et al. (1988) supra], centrifuged (500 g), and resuspended in media and added at different E:T ratios to the labeled target cells in round-bottomed 96-well microtiter plates. This mixture was incubated (25° C.) for 4-6 hours and 100 μl of each supernatant was removed to determine radioactivity (Beckman Biogamma II Counter; Beckman Instruments, Irvine, Calif.). The results are expressed as either percentage specific release (SR)=[(test release--spontaneous release)/(total release--spontaneous release)]×100; percent inhibition=[(percentage control SR--percentage test SR)/percentage control SR]×100; and percentage increase=(percentage test SR--percentage control SR)/percentage control SR.
NCC were obtained as previously described [Graves et al. (1984) supra]; Evans et al. (1984) supra]. […] NCC were then washed and resuspended at 20×10^6 cells/ml, and 35 μl aliquots were added to test tubes containing 315 μl media only (media control) or media containing the indicated treatments. After 2 hr incubation, the cells were mixed with ^51 Cr-labeled IM-9 target cells and incubated for 4-6 hours ([…]). Supernatants were harvested and cytotoxicity levels were calculated as previously described.
Membrane phosphorylation is maintained through a delicate equilibrium between cellular kinase and phosphatase activities.
In further studies, NCC were treated with different concentrations of protein phosphatase inhibitors for two hours and labeled IM-9 target cells were added for a four-hour microcytotoxicity assay (Table 8).

[3] = tested on: NCC from stressed fish (lysis of IM-9 target cells); conditions: 100:1, control 0.9
Protocol: as §1
A common observation in fish exposed to stress, e.g., toxicants, drastic temperature changes, handling, etc., is the temporary loss of NCC activity.

[4] = tested on: NCC (lysis of IM-9 target cells); conditions: 0.05 mM (50 μM), immersion, 10, 24, 48 hours
Protocol: FIG. 9. In vivo NCC responses to vanadate treatment. Catfish were acclimated in 10 gal tanks for 24 hours prior to treatment. Vanadate was added directly to the tanks and cytotoxicity assays of NCC from treated and control fish were conducted at 10, 24 and 48 hours post-treatment.
Fish were treated by immersion in 10 gal (static flow) tanks containing the appropriate inhibitor concentrations in 15 liters of dechlorinated water (19°-20° C.). All fish were acclimated to tank conditions 24 hours prior to treatment. Each tank housed twenty fish (approximately 4-5 inches in length). At 24 hour intervals 50% of the water was changed.
To determine the ability of vanadate to act in vivo to activate NCC responses, fish were treated by immersion with 0.050 mM vanadate and cytotoxicity was determined at 10, 24 and 48 hours post-treatment.

[5] = tested on: NCC in anterior kidney tissue; conditions: for % NCC in anterior kidney tissue / Total cells/ml: 50 μM
[6] = tested on: muscles and liver; cardiac performance; conditions: rats; cited from earlier work
Edwardsiella ictaluri [7] = tested on: Edwardsiella ictaluri
Protocol: FIG. 11. Effects of treatment of catfish with vanadate prior to infection with E. ictaluri. In two different experiments (A and B), catfish were treated with vanadate (indicated concentrations) 48 hours prior to infection with Edwardsiella. Percent cumulative mortality for each treatment group is given. Numbers of fish were 12-15/group/experiment.
Thus, catfish were treated (by immersion) with 0.05 mM vanadate for 48 hours prior to infection with Edwardsiella ictaluri.

[8] = tested on: cellular carbohydrate biosynthetic pathways; conditions: cited from earlier work
[9] = tested on: human prostate gland phosphotyrosyl protein phosphatase; conditions: cited from earlier work

## sodium orthovanadate
Diabetic animals; oral, 15 μM in drinking water
  blood glucose levels in diabetic animals: normalization of blood glucose levels in diabetic animals
Diabetic animals; rats
  time to reversal of effects after suspension of treatment: two
Edwardsiella ictaluri [1]
  mortality of infected catfish (words): mortality was reduced
Na^+ /K^+ ATPase
  Na^+ /K^+ ATPase inhibition: significantly inhibited
Protein phosphatase
  protein phosphatase activity: vanadate but not fluoride inhibited protein phosphatase activity
calcineurin
  calcineurin-mediated dephosphorylation: fluoride, but not vanadate inhibited
[2]; 5 mM, E:T 10, media 39
  Percent Specific Release: 63%
[2]; 5 mM, E:T 25, media 4
  Percent Specific Release: 29%
[2]; 5 mM, E:T 50, media 21
  Percent Specific Release: 46%
[2]; 10 mM, E:T 10, media 39
  Percent Specific Release: 62%
[2]; 10 mM, E:T 25, media 4
  Percent Specific Release: 40%
[2]; 10 mM, E:T 50, media 21
  Percent Specific Release: 49%
[2]
  effect of removal of inhibitor on NCC activation (words): slightly reduced levels of NCC cytotoxicity
[2]; listed as sodium vanadate
  effect of removal of inhibitor on NCC activation (words): largely retained
  enhancement of destruction of IM-9 target cells (fold): as much as six- to eightfold
[2]; listed as Sodium vanadate
  enhancement of destruction of IM-9 target cells (fold): approximately six- to eightfold
[3]; Na3 VO4 5.0 mM
  Percent Specific Release (stressed fish): 9.9%
[3]; Na3 VO4 10.0 mM
  Percent Specific Release (stressed fish): 13.1%
[4]; listed as orthovanadate
  in vivo NCC cytotoxicity (words): significantly increased cytotoxicity 48 hours post-treatment
[4]; listed as vanadate
  in vivo NCC cytotoxicity (words): large increases in cytotoxicity by 48 hours
[5]; 3 hours post-treatment, control 60
  % NCC in anterior kidney tissue: 51%
[5]; 3 hours, control 3.2
  Total cells/ml: 3.1 cells/ml × 10^0
[5]; 24 hours, control 2.6
  Total cells/ml: 2.8 cells/ml × 10^0
[5]; 24 hours, control 55
  % NCC in anterior kidney tissue: 60%
[5]; 48 hours, control 2.1
  Total cells/ml: 3.5 cells/ml × 10^0
[5]; 48 hours, control 52
  % NCC in anterior kidney tissue: 66%
[5]; 72 hours, control 2.3
  Total cells/ml: 3.1 cells/ml × 10^0
[5]; 72 hours, control 70
  % NCC in anterior kidney tissue: 72%
[5]; 96 hours, control 3.6
  Total cells/ml: 1.6 cells/ml × 10^0
[5]; 96 hours, control 61
  % NCC in anterior kidney tissue: 78%
[5]; in vivo
  effect on total number of cells and percentage NCC in anterior kidney tissue: not due to fluctuations in the total number of cells nor in the percentage of NCC
[6]
  cardiac performance: improved cardiac performance
  glucose transport into muscles and liver: stimulated glucose transport into muscles and liver
Edwardsiella ictaluri [7]; 0.05 mM pretreatment 48 hours, FIG. 11A
  reduction in mortality: 27%
Edwardsiella ictaluri [7]; 0.05 mM pretreatment, 13-14 days post infection, FIG. 11B
  reduced mortality: 54%
Edwardsiella ictaluri [7]; 0.05 mM, 48 hours prior to infection, listed as sodium orthovanadate
  mortality / resistance after pretreatment (words): produced resistance in catfish against the Edwardsiella pathogen
Edwardsiella ictaluri [7]; experiment B
  survival at 28 days post-infection: all treated catfish were still alive
[8]
  glucose oxidation: stimulation of glucose oxidation
  glycogen synthetase activity: stimulation of glycogen synthetase activity
  insulin activity: prolongation of insulin activity
  insulin binding: augmentation of insulin binding
[9]
  human prostate gland phosphotyrosyl protein phosphatase: fluoride, but not vanadate inhibited human prostate gland phosphotyrosyl protein phosphatase
